Results from patent US8975398B2, “NAMPT inhibitors” (AbbVie Inc., priority 2012, dated 2015).

What was measured:
[1] = biological target: NAMPT (human, recombinant, C-terminally His-tagged) (Homo sapiens, UniProt P43490); test: Time-Resolved Fluorescence Resonance Energy Transfer (TR-FRET) Binding Assay of NAMPT; details: 6.8 nM NAMPT, 200 nM probe, equilibrated 3 hours, absence of substrates
Method: Determination of the utility of compounds having Formula (I) as binders to and inhibitors of NAMPT was performed using Time-Resolved Fluorescence Resonance Energy Transfer (TR-FRET) binding assays.
Time-Resolved Fluorescence Resonance Energy Transfer (TR-FRET) Binding Assay of NAMPT
Test compounds were serially diluted (typically 11 half log dilutions) in neat DMSO to 50× final concentrations prior to dilution with assay buffer (50 mM HEPES (NaOH), pH 7.5, 100 mM NaCl, 10 mM MgCl2, 1 mM DTT, 1% Glycerol) to 3× and 6% DMSO. Six μL were transferred to 384-well low-volume plates (Owens Corning #3673). To this, 12 μL of a 1.5× solution containing enzyme, probe and antibody were added. Final concentrations in the 18 μL, reactions were 1× assay buffer, 2% DMSO, 6.8 nM NAMPT (human, recombinant, C-terminally His-tagged), 200 nM probe (a potent nicotinamide-competitive inhibitor conjugated to Oregon Green 488) and 1 nM Tb-anti-His antibody (Invitrogen #PV5895). Reactions were equilibrated at room temperature for 3 hours prior to reading on an Envision multi-label plate reader (Perkin Elmer; Ex=337 nm, Em=520 and 495 nm). Time-resolved FRET ratios (Em520/Em495) were normalized to controls, plotted as a function of compound concentration and fit with the four-parameter logistic equation to determine IC50s.

NAMPT = NAMPT (Homo sapiens, UniProt P43490); test: Time-Resolved Fluorescence Resonance Energy Transfer (TR-FRET) Binding Assay of NAMPT with PRPP; details: 2 nM NAMPT, 2 nM probe, 200 uM PRPP and 2.5 mM ATP, equilibrated 16 hours
NAMPT, sequence (P43490 whole entry): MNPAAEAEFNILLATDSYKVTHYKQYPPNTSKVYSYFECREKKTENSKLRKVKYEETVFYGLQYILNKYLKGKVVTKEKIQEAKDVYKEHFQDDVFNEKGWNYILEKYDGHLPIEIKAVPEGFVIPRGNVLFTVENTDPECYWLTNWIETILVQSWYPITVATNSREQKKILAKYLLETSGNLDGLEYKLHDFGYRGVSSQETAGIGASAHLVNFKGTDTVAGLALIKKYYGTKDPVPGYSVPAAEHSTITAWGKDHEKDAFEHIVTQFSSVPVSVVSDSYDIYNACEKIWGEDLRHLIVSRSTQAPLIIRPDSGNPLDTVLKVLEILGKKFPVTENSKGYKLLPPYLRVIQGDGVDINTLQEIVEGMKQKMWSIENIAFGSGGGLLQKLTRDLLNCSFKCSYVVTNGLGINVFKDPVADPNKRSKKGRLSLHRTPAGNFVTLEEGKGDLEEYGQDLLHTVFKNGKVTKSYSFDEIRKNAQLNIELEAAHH
Method: Time-Resolved Fluorescence Resonance Energy Transfer (TR-FRET) Binding Assay of NAMPT with PRPP
Compound handling and data processing were identical to the assay in the absence of substrates (above). Final concentrations were 1× assay buffer, 2% DMSO, 2 nM NAMPT, 2 nM probe, 1 nM Tb-anti-His antibody (Invitrogen #PV5895), 200 uM PRPP and 2.5 mM ATP. Reactions were equilibrated for 16 hours prior to measurement to allow for potential enzymatic modification of test compounds.

NAMPT (human, recombinant, C-terminally His-tagged), sequence (P43490 whole entry): as above

Structure (SMILES)	IC50 [1] [nM]	IC50 (NAMPT) [nM]
Cc1ncccc1N1CC(C(=O)Nc2ccc(C3CCN(C(=O)c4ccccc4Cl)CC3)cc2)C1 [Example 151, N-{4-[1-(2-chlorobenzoyl)piperidin-4-yl]phenyl}-1-(2-methylpyridin-3-yl)azetidine-3-carboxamide]	17.4	43.6
O=C(Nc1ccc(OC2CCN(C(=O)c3cccc(Cl)c3)CC2)cc1)C1CN(c2ccnnc2)C1 [Example 295, N-(4-{[1-(3-chlorobenzoyl)piperidin-4-yl]oxy}phenyl)-1-(pyridazin-4-yl)azetidine-3-carboxamide]	77.6	51
CCOCC(=O)N1CCC(c2ccc(NC(=O)C3CN(c4cccnc4C)C3)cc2)CC1 [Example 191, N-{4-[1-(ethoxyacetyl)piperidin-4-yl]phenyl}-1-(2-methylpyridin-3-yl)azetidine-3-carboxamide]	743	184
Cc1ncccc1N1CC(C(=O)Nc2ccc(C3CCN(C(=O)c4ccc(Cl)cc4)CC3)cc2)C1 [Example 156, N-{4-[1-(4-chlorobenzoyl)piperidin-4-yl]phenyl}-1-(2-methylpyridin-3-yl)azetidine-3-carboxamide]	396	84.3
Cc1ncccc1N1CC(C(=O)Nc2ccc(C3CCN(C(=O)C(C)(C)C)CC3)cc2)C1 [Example 185, N-{4-[1-(2,2-dimethylpropanoyl)piperidin-4-yl]phenyl}-1-(2-methylpyridin-3-yl)azetidine-3-carboxamide]	81.3	44.1
CC(C)Cn1cc(-c2ccc(NC(=O)C3CN(c4ccnnc4)C3)cc2)cn1 [Example 148, N-{4-[1-(2-methylpropyl)-1H-pyrazol-4-yl]phenyl}-1-(pyridazin-4-yl)azetidine-3-carboxamide]	42.9	20.1
COCC(=O)N1CCC(Oc2ccc(NC(=O)C3CN(c4ccnnc4)C3)cc2)CC1 [Example 267, N-(4-{[1-(methoxyacetyl)piperidin-4-yl]oxy}phenyl)-1-(pyridazin-4-yl)azetidine-3-carboxamide]	274	56.5
O=C(Nc1ccc(OC2CCN(C(=O)c3ccc(F)cc3)CC2)cc1)C1CN(c2ccnnc2)C1 [Example 271, N-(4-{[1-(4-fluorobenzoyl)piperidin-4-yl]oxy}phenyl)-1-(pyridazin-4-yl)azetidine-3-carboxamide]	78	25.2
O=C(Nc1ccc(OC2CN(C(=O)C3CCCC3)C2)cc1)C1CN(c2ccnnc2)C1 [Example 259, N-(4-{[1-(cyclopentylcarbonyl)azetidin-3-yl]oxy}phenyl)-1-(pyridazin-4-yl)azetidine-3-carboxamide]	32.5	17.7
Cc1ncccc1N1CC(C(=O)Nc2ccc(C3CCN(C(=O)C4CC4C)CC3)cc2)C1 (centres unmarked) [Example 163, N-(4-{1-[(2-methylcyclopropyl)carbonyl]piperidin-4-yl}phenyl)-1-(2-methylpyridin-3-yl)azetidine-3-carboxamide]	166	83.1
Cc1ncccc1N1CC(C(=O)Nc2ccc(C3CCN(C(=O)CC(C)(C)C)CC3)cc2)C1 [Example 192, N-{4-[1-(3,3-dimethylbutanoyl)piperidin-4-yl]phenyl}-1-(2-methylpyridin-3-yl)azetidine-3-carboxamide]	47.3	72.3
Cc1ncccc1N1CC(C(=O)Nc2ccc(C3CCN(C(=O)C(C)C(C)C)CC3)cc2)C1 (centres unmarked) [Example 198, N-{4-[1-(2,3-dimethylbutanoyl)piperidin-4-yl]phenyl}-1-(2-methylpyridin-3-yl)azetidine-3-carboxamide]	84.5	103

Compounds with a lower IC50 (NAMPT), results first:

IC50 [1] [nM]	IC50 (NAMPT) [nM]	Structure (SMILES)
–	11.2	CC(C)(C)OC(=O)N1CCC(Oc2ccc(C(=O)N[C@H]3CCN(c4cccnc4)C3)cc2)CC1 [Example 27, tert-butyl 4-(4-{[(3S)-1-(pyridin-3-yl)pyrrolidin-3-yl]carbamoyl}phenoxy)piperidine-1-carboxylate]
–	2.51	CC(C)(C)OC(=O)N1CCC(Oc2ccc(C(=O)N[C@@H]3CCN(c4cccnc4)C3)cc2)CC1 [Example 28, tert-butyl 4-(4-{[(3R)-1-(pyridin-3-yl)pyrrolidin-3-yl]carbamoyl}phenoxy)piperidine-1-carboxylate]
80.5	1.78	CC(=O)N[C@@H](CC(C)C)C(=O)N1CCC(Oc2ccc(NC(=O)C3CN(c4cccnc4)C3)cc2)CC1 [Example 47, N-(4-{[1-(N-acetyl-L-leucyl)piperidin-4-yl]oxy}phenyl)-1-(pyridin-3-yl)azetidine-3-carboxamide]
14	1.08	CCC(C)(C)C(=O)N1CCC(c2ccc(NC(=O)C3CN(c4cccnn4)C3)cc2)CC1 [Example 325, N-{4-[1-(2,2-dimethylbutanoyl)piperidin-4-yl]phenyl}-1-(pyridazin-3-yl)azetidine-3-carboxamide]
23.9	0.973	O=C(Nc1ccc(C2CCN(C(=O)Cc3ccc(Cl)c(Cl)c3)CC2)cc1)C1CN(c2cccnn2)C1 [Example 374, N-(4-{1-[(3,4-dichlorophenyl)acetyl]piperidin-4-yl}phenyl)-1-(pyridazin-3-yl)azetidine-3-carboxamide]
230	0.88	O=C(Nc1ccc(OC2CCN(C(=O)C3CC3)CC2)cc1)C1CN(c2cccnn2)C1 [Example 251, N-(4-{[1-(cyclopropylcarbonyl)piperidin-4-yl]oxy}phenyl)-1-(pyridazin-3-yl)azetidine-3-carboxamide]
21.3	0.869	Cc1ccc(C)c(C(=O)N2CCC(c3ccc(NC(=O)C4CN(c5cccnn5)C4)cc3)CC2)c1 [Example 359, N-{4-[1-(2,5-dimethylbenzoyl)piperidin-4-yl]phenyl}-1-(pyridazin-3-yl)azetidine-3-carboxamide]
15.9	0.815	Cc1ccc(C(=O)N2CCC(c3ccc(NC(=O)C4CN(c5cccnn5)C4)cc3)CC2)c(C)c1 [Example 358, N-{4-[1-(2,4-dimethylbenzoyl)piperidin-4-yl]phenyl}-1-(pyridazin-3-yl)azetidine-3-carboxamide]
31.9	0.801	O=C(Nc1ccc(OC2CCN(C(=O)c3ccccc3Cl)CC2)cc1)C1CN(c2cccnn2)C1 [Example 211, N-(4-{[1-(2-chlorobenzoyl)piperidin-4-yl]oxy}phenyl)-1-(pyridazin-3-yl)azetidine-3-carboxamide]
70.4	0.787	CC[C@H](C)C(=O)N1CCC(Oc2ccc(NC(=O)C3CN(c4cccnn4)C3)cc2)CC1 [Example 212, N-[4-({1-[(2S)-2-methylbutanoyl]piperidin-4-yl}oxy)phenyl]-1-(pyridazin-3-yl)azetidine-3-carboxamide]
22	0.782	Cc1ccc(C(=O)N2CCC(c3ccc(NC(=O)C4CN(c5cccnn5)C4)cc3)CC2)cc1C [Example 360, N-{4-[1-(3,4-dimethylbenzoyl)piperidin-4-yl]phenyl}-1-(pyridazin-3-yl)azetidine-3-carboxamide]
51	0.696	O=C(Nc1ccc(OC2CCN(C(=O)C3CCCC3)CC2)cc1)C1CN(c2cccnc2)C1 [Example 52, N-(4-{[1-(cyclopentylcarbonyl)piperidin-4-yl]oxy}phenyl)-1-(pyridin-3-yl)azetidine-3-carboxamide]
141	0.563	O=C(Nc1ccc(OC2CCN(C(=O)Cc3ccc(F)cc3)CC2)cc1)C1CN(c2cccnn2)C1 [Example 232, N-[4-({1-[(4-fluorophenyl)acetyl]piperidin-4-yl}oxy)phenyl]-1-(pyridazin-3-yl)azetidine-3-carboxamide]
784	0.548	CCC(CC)CN1CCC(c2ccc(NC(=O)C3CN(c4cccnc4)C3)cc2)CC1 [Example 92, N-{4-[1-(2-ethylbutyl)piperidin-4-yl]phenyl}-1-(pyridin-3-yl)azetidine-3-carboxamide]
56.6	0.535	CC1(C(=O)N2CCC(Oc3ccc(NC(=O)C4CN(c5cccnc5)C4)cc3)CC2)CC1 [Example 66, N-[4-({1-[(1-methylcyclopropyl)carbonyl]piperidin-4-yl}oxy)phenyl]-1-(pyridin-3-yl)azetidine-3-carboxamide]
288	0.535	O=C(Nc1ccc(C2CCN(C(=O)CCN3CCCCC3)CC2)cc1)C1CN(c2cccnc2)C1 [Example 130, N-(4-{1-[3-(piperidin-1-yl)propanoyl]piperidin-4-yl}phenyl)-1-(pyridin-3-yl)azetidine-3-carboxamide]
3.33	0.176	O=C(Nc1ccc(C2CCN(C(=O)c3nccs3)CC2)cc1)C1CN(c2cccnc2)C1 [Example 108, 1-(pyridin-3-yl)-N-{4-[1-(1,3-thiazol-2-ylcarbonyl)piperidin-4-yl]phenyl}azetidine-3-carboxamide]
